Drawing on patent US20260001889A1, “COMPOSITIONS USEFUL FOR MODULATING SPLICING” (Skyhawk Therapeutics, Inc., priority 2022, published 2026), this text covers IC50 and EC50 for 31 compounds.

One assay concerns total ATXN3 protein. Put plainly: ATXN3 Total Protein Assay (Mesoscale Discovery, SK-N-MC cells). In kind it is cell-based, Human. The settings on record: incubation for 48 hours, MSD assay. As to the method: Example 35: ATXN3 Total Protein Assay
Human neuroblastoma SK-N-MC cells were seeded at 10,000 cells/well in 384 well plates one day prior to compound treatment. The concentrations of compounds were tested at appropriate doses ranging from 30 μM to 0.6 nM. After incubation for 48 hours, the cells were lysed with 25 μL of lysis buffer containing protease inhibitors, and total ATXN3 protein levels were assessed by Mesoscale Discovery (MSD) assay developed with one pair of anti-ATXN3 antibodies. The capture and detect antibodies were raised in mouse and rabbit respectively. Anti-rabbit MSD-ST antibody was used for secondary antibody.
ATXN3 recombinant protein was used for standards. The readouts were captured with 35 μL of MSD read buffer and multi-array 384-well high binding plates.

The test system of assay [1] is ATXN3 transcripts containing exon 4. Put plainly: ATXN3 Quantitative Splicing Assay (qPCR, E4E5 primers/probe). In kind it is cell-based. Particulars: Homo sapiens, SK-N-MC cells, compounds for 24 h. As to the method: Example 34: ATXN3 Quantitative Splicing Assay
Human neuroblastoma SK-N-MC cells were plated in 384-well plates at 20,000 cells/well. Twenty-four hours after plating, cells were treated with compounds for 24 h at appropriate concentrations ranging from 30 μM to 0.6 nM (0.300 DMSO). Treated cells were lysed in 15 μL of lysis buffer, and cDNA was synthesized using the Fast Advanced Cells-to-Ct kit. Two […] of each cDNA was used in qPCR reactions to confirm the exon 4 skipped transcripts of ATXN3. A second set of primers/probe E4E5 was used to detect the transcripts containing exon 4. The third set of primers/probe E8E9 was used to detect total gene level of ATXN3. The qPCR reactions were prepared in 384-well plates in 10 μL volume, using TaqMan™ Fast Advanced Master Mix with primers and probes shown in the table below. Reactions were run in a Quant Studio 6 qPCR instrument with default settings.
The primers and probes are listed below in Table 4.
(In general: Real-time PCR tracks product formation cycle by cycle.)

Another assay has as its system ATXN3-HiBiT protein. The experiment in a line: ATXN3 Total Protein Assay (Kelly-ATXN3-HiBiT luminescence). It is filed as cell-based. The settings on record: Kelly-ATXN3-HiBiT cells, 48 h after addition of compound. The procedure, abridged:
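Kelly cells with homozygous C-terminal HiBiT knock-in on endogenous ATXN3, 2000 per well, dosed 24 h after seeding. HiBiT lytic luminescence read 48 h after compound; sister plate read with CellTiter-Glo for viability; fold change vs DMSO.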
A general note: HiBiT is a short tag that completes a luciferase, so light tracks the accessible tagged protein.

Usually IC50 stands for the concentration at which inhibition is half-maximal. Low readings indicate greater potency in that assay, high ones weaker potency in that assay. Regarding `CC(N)Cc1cc2nc(Cl)cc(NCc3ccncc3)c2o1` (stereo not shown) [Compound 1, 2-(2-aminopropyl)-5-chloro-7-{[(4-pyridyl)methyl]amino}-1-oxa-4-azaindene], the concentration for half-maximal inhibition (IC50) (in the assay with total ATXN3 protein; in assay [1]) was 10000 to 40000 nM throughout.
As to `Clc1cc(NCc2cccs2)c2occ(C3CC3)c2n1` [Compound 32, (thenyl)(5-chloro-3-cyclopropyl-1-oxa-4-aza-7-indenyl)amine], the half-maximal inhibitory concentration (IC50) (in the assay with total ATXN3 protein; in assay [1]) was 501 to 5000 nM each time.
On to `Cc1c(C[C@H](C)N)oc2c(NCc3nccs3)cc(Cl)nc12` [Compound 9, 2-[(S)-2-aminopropyl]-5-chloro-3-methyl-7-{[(1,3-thiazol-2-yl)methyl]amino}-1-oxa-4-azaindene], for which the IC50 (in the assay with total ATXN3 protein; in assay [1]) was 501 to 5000 nM in each case.
What is called EC50 is the concentration needed to bring the measured effect to its halfway point. Low readings indicate greater potency, high ones weaker potency. `C[C@H](N)C(F)(F)c1oc2c(NCc3cccs3)cc(Cl)nc2c1Br` [Compound 187, 2-[(S)-2-amino-1,1-difluoropropyl]-3-bromo-5-chloro-7-thenylamino-1-oxa-4-azaindene] yielded a half-maximal effective concentration (EC50) in the assay on ATXN3-HiBiT protein of 0.01 to 100 nM. In assay [1], this compound showed an IC50 of 0.01 to 100 nM.
Turning to `COC[C@H](N)Cc1oc2c(NCc3ccccc3)cc(Cl)nc2c1Br` [Compound 47, 2-[(R)-2-amino-3-methoxypropyl]-7-benzylamino-3-bromo-5-chloro-1-oxa-4-azaindene], the IC50 (in the assay on total ATXN3 protein; in assay [1]) was 101 to 500 nM in each case.
Turning to `OCc1oc2c(NCc3cccs3)cc(Cl)nc2c1Br` [Compound 354, (3-bromo-5-chloro-7-thenylamino-1-oxa-4-aza-2-indenyl)methanol], in the assay on ATXN3-HiBiT protein, the 50% effective concentration (EC50) was in the range of 5000 to 10000 nM. The IC50 in assay [1] is 5000 to 10000 nM.
As for `Cc1c(C[C@@H](C)N)oc2c(NCc3ccncc3)cc(Cl)nc12` (single isomer, unassigned) [Compound 4], the IC50 lay within 501 to 5000 nM in the assay with total ATXN3 protein and 5000 to 10000 nM in assay [1].
On to `Cc1c(C[C@H](C)N)oc2c(NCc3ccc(F)s3)cc(Cl)nc12` [Compound 12, 2-[(S)-2-aminopropyl]-5-chloro-7-{[(5-fluoro-2-thienyl)methyl]amino}-3-methyl-1-oxa-4-azaindene], for which the IC50 (with total ATXN3 protein; in assay [1]) was 501 to 5000 nM in each case.
On to `C[C@H](N)Cc1oc2c(NCc3ccc(Cl)s3)cc(Cl)nc2c1Br` [Compound 353, 2-[(S)-2-aminopropyl]-3-bromo-5-chloro-7-{[(5-chloro-2-thienyl)methyl]amino}-1-oxa-4-azaindene], for which the EC50 in the assay with ATXN3-HiBiT protein is 501 to 5000 nM. In addition, the IC50 in assay [1] was 501 to 5000 nM.
For the compound `Cc1c(C[C@@H](N)CC(F)(F)F)oc2c(NCc3cccs3)cc(Cl)nc12` [Compound 30, 2-[(R)-2-amino-4,4,4-trifluorobutyl]-5-chloro-3-methyl-7-thenylamino-1-oxa-4-azaindene], the IC50 (with total ATXN3 protein; in assay [1]) was 501 to 5000 nM in each case.
Take `COC[C@H](N)Cc1oc2c(NCc3ccco3)cc(Cl)nc2c1Br` [Compound 38, 2-[(R)-2-amino-3-methoxypropyl]-3-bromo-5-chloro-7-(furfurylamino)-1-oxa-4-azaindene]: the IC50 in the assay with total ATXN3 protein was 0.01 to 100 nM; in assay [1], 101 to 500 nM.
Consider `N[C@H](Cc1oc2c(NCc3cccs3)cc(Cl)nc2c1Br)CC1CC1` [Compound 55, 2-[(S)-2-amino-3-cyclopropylpropyl]-3-bromo-5-chloro-7-thenylamino-1-oxa-4-azaindene], for which the IC50 (in the assay on total ATXN3 protein; in assay [1]) was 0.01 to 100 nM throughout.
Turning to `CC(N)Cc1cc2nc(Cl)cc(NCc3ccccc3)c2o1` (stereo not shown) [Compound 2, 2-(2-aminopropyl)-7-benzylamino-5-chloro-1-oxa-4-azaindene], the IC50 (in the assay with total ATXN3 protein; in assay [1]) was 5000 to 10000 nM in each case.
Take `N[C@@H](CF)Cc1oc2c(NCc3ccco3)cc(Cl)nc2c1Br` [Compound 39, 2-[(R)-2-amino-3-fluoropropyl]-3-bromo-5-chloro-7-(furfurylamino)-1-oxa-4-azaindene]: the IC50 (in the assay with total ATXN3 protein; in assay [1]) was 0.01 to 100 nM in each case.
For the compound `Clc1cc(NCc2ccncc2)c2occc2n1` [Compound 6, 5-chloro-N-(pyridin-4-ylmethyl)furo[3,2-b]pyridin-7-amine], the IC50 (in the assay with total ATXN3 protein; in assay [1]) was 10000 to 40000 nM throughout.
Regarding `Cc1c(C[C@H](C)N)oc2c(NCc3cccs3)cc(C#N)nc12` [Compound 15, 2-[(2S)-2-aminopropyl]-3-methyl-7-[(thiophen-2-ylmethyl)amino]furo[3,2-b]pyridine-5-carbonitrile], the IC50 (with total ATXN3 protein; in assay [1]) was 501 to 5000 nM in each case.
For the compound `Cc1c(CC(C)N)oc2c(NCc3ccncc3)cc(Cl)nc12` (stereo not shown) [Compound 7, 2-(2-aminopropyl)-5-chloro-3-methyl-7-{[(4-pyridyl)methyl]amino}-1-oxa-4-azaindene], the IC50 (in the assay on total ATXN3 protein; in assay [1]) was 501 to 5000 nM each time.
Regarding `N[C@H](Cc1oc2c(NCc3cccs3)cc(Cl)nc2c1Cl)CC1CC1` [Compound 28, 2-[(S)-2-amino-3-cyclopropylpropyl]-3,5-dichloro-7-thenylamino-1-oxa-4-azaindene], the IC50 (in the assay on total ATXN3 protein; in assay [1]) was 101 to 500 nM each time.
Regarding `Cc1c(C[C@@H](N)[C@@H](C)F)oc2c(NCc3cccs3)cc(Cl)nc12` [Compound 42, 2-[(2R,3R)-2-amino-3-fluorobutyl]-5-chloro-3-methyl-7-thenylamino-1-oxa-4-azaindene], the half-maximal inhibitory concentration (IC50) (with total ATXN3 protein; in assay [1]) was 501 to 5000 nM in each case.
Take `N[C@H](Cc1oc2c(NCc3cccs3)cc(Cl)nc2c1Br)CC(F)(F)F` [Compound 24, 2-[(R)-2-amino-4,4,4-trifluorobutyl]-3-bromo-5-chloro-7-thenylamino-1-oxa-4-azaindene]: the IC50 (with total ATXN3 protein; in assay [1]) was 101 to 500 nM in each case.
Take `C[C@H](N)Cc1oc2c(NCc3cccs3)cc(Cl)nc2c1C1CC1` [Compound 19, 2-[(2S)-2-aminopropyl]-5-chloro-3-cyclopropyl-N-(thiophen-2-ylmethyl)furo[3,2-b]pyridin-7-amine]: the concentration for half-maximal inhibition (IC50) (with total ATXN3 protein; in assay [1]) was 101 to 500 nM throughout.
With `COC[C@H](N)Cc1oc2c(NCc3nccs3)cc(Cl)nc2c1Br` [Compound 49, 2-[(R)-2-amino-3-methoxypropyl]-3-bromo-5-chloro-7-{[(1,3-thiazol-2-yl)methyl]amino}-1-oxa-4-azaindene], the IC50 (in the assay on total ATXN3 protein; in assay [1]) was 101 to 500 nM in each case.
In the assay on ATXN3-HiBiT protein, `C[C@H](N)Cc1oc2c(NCc3ccc(F)cc3F)cc(Cl)nc2c1Br` [Compound 350, 2-[(S)-2-aminopropyl]-3-bromo-5-chloro-7-{[(2,4-difluorophenyl)methyl]amino}-1-oxa-4-azaindene] returned an EC50 of 501 to 5000 nM. The same compound returned an IC50 in assay [1] of 501 to 5000 nM.
Consider `CNC(=O)c1c(C[C@H](C)N)oc2c(NCc3ccco3)cc(Cl)nc12` [Compound 358, 2-[(2S)-2-aminopropyl]-5-chloro-7-[(furan-2-ylmethyl)amino]-N-methylfuro[3,2-b]pyridine-3-carboxamide], for which, in assay [1], the concentration for half-maximal inhibition (IC50) was in the range of 10000 to 40000 nM.
Regarding `C#Cc1c(C[C@@H](N)CCOC(F)F)oc2c(NCc3cccs3)cc(Cl)nc12` [Compound 197, 2-[(S)-2-amino-4-difluoromethoxybutyl]-5-chloro-3-ethynyl-7-thenylamino-1-oxa-4-azaindene], the concentration for a half-maximal effect (EC50) in the assay with ATXN3-HiBiT protein lay in the range of 0.01 to 100 nM. The same compound yielded an IC50 in assay [1] of 0.01 to 100 nM.
In assay [1], `COc1cc(CNc2cc(Cl)nc3c(Br)c(C[C@H](C)N)oc23)ccn1` [Compound 361, 2-[(S)-2-aminopropyl]-3-bromo-5-chloro-7-{[(2-methoxy-4-pyridyl)methyl]amino}-1-oxa-4-azaindene] showed a half-maximal inhibitory concentration (IC50) of 10000 to 40000 nM.
Still for that read-out and setting: to `N[C@@H]1CCC[C@H]1c1oc2c(NCc3cccs3)cc(Cl)nc2c1Br` [Compound 172, 2-[(1R,2R)-2-aminocyclopentyl]-3-bromo-5-chloro-7-thenylamino-1-oxa-4-azaindene] belongs 501 to 5000 nM.
In turn, `C#Cc1c(C[C@@H](N)[C@H](C)F)oc2c(NCc3cccs3)c(F)c(Cl)nc12` [Compound 278, 2-[(2R,3S)-2-amino-3-fluorobutyl]-5-chloro-3-ethynyl-6-fluoro-7-thenylamino-1-oxa-4-azaindene] had a 50% inhibitory concentration (IC50) in assay [1] of 101 to 500 nM.
In assay [1], `C[C@H](N)Cc1oc2c(NCc3ccco3)cc(Cl)nc2c1-c1ncc(C(N)=O)o1` [Compound 365, 2-{2-[(2S)-2-aminopropyl]-5-chloro-7-[(furan-2-ylmethyl)amino]furo[3,2-b]pyridin-3-yl}-1,3-oxazole-5-carboxamide] displayed an IC50 of 10000 to 40000 nM.
On the same count and under the same terms, to `N[C@H]1CCC(F)(F)C[C@@H]1c1oc2c(NCc3cccs3)cc(Cl)nc2c1Br` [Compound 380, 2-[(1S,2S)-2-amino-5,5-difluorocyclohexyl]-3-bromo-5-chloro-7-thenylamino-1-oxa-4-azaindene] belongs 101 to 500 nM; to `N[C@@H]1COC[C@H]1c1oc2c(NCc3cccs3)cc(Cl)nc2c1Br` [Compound 374, 2-[(3S,4S)-4-aminotetrahydro-3-furyl]-3-bromo-5-chloro-7-thenylamino-1-oxa-4-azaindene], 10000 to 40000 nM.
